Legend:
Type in all cases: cell-based, human
[1] = tested on: cyclin E and CDK2 complexes in MCF-7/Ac1 cells; experiment: Immunoprecipitation of cyclin E or CDK2 followed by western blot for p21 and p27
Experimental: Immunoprecipitation and Immunoblotting. Two hundred fifty μg of cell extracts were used per immunoprecipitation with polyclonal antibody to cyclin E or polyclonal antibody to CDK2, coupled to protein A beads. After being washed, the immunoprecipitates were subjected to electrophoresis in 13% gels, transferred to Immobolin P, blocked, and incubated with the indicated antibodies as already described.
(§1) MCF-7/Ac1 cells were treated with the indicated concentrations of letrozole and AD for 3 days. Cyclin E kinase assays were performed by immunoprecipitating equal amounts of cell lysate (250 μg) with monoclonal antibodies to cyclin E coupled to protein A beads, using histone H1 as substrate. […] The same cell lysates were subjected to western blot analysis (50 μg of protein) with the indicated antibodies. […] The same cell lysates were first immunoprecipitated with cyclin E followed by western blot for p21 and p27. […] The same cell lysates were first immunoprecipitated with CDK2 followed by western blot for p21 and p27. The levels of proteins were measured by densitometric scanning of the corresponding bands and normalized using actin values. The values indicated at the bottom were compared to the values obtained with untreated cells.

MCF-7/Ac1 cells [2] = experiment: Western blot of CDK2, phospho-CDK2, cyclin E, pRb
Experimental: (§2) FIG. 28. Effect of increasing concentrations of letrozole in the presence of 25 nM AD on CDK2 kinase activity, activated CDK2 and Rb phosphorylation of MCF7/Ac1 human breast cancer cells. MCF-7/Ac1 cells were treated with the indicated concentrations of letrozole and AD for 3 days. CDK2 kinase assays were performed by immunoprecipitating equal amounts of cell lysate (250 μg) with monoclonal antibodies to CDK2 (D12, sc-6248) coupled to protein G beads, using histone H1 as substrate. […] The same cell lysates were subjected to western blot analysis (50 μg of protein) with the indicated antibodies.
Western blot analysis. Cell lysates were prepared and subjected to western blot analysis as described previously (Akli et al., 2004). Briefly, 50 μg of protein were subjected to electrophoresis on SDS-PAGE and transferred to Immobilon P overnight at 4° C. at […] constant voltage. The blots were blocked overnight at 4° C. in BLOTTO [5% nonfat dried milk in 20 mM Tris, 137 mM NaCl, and 0.05% Tween (pH 7.6)]. After being washed, the blots were incubated in primary antibodies for 3 h. Primary antibodies used were cyclin E (HE-12; Santa Cruz Biotechnology), p21 (0P64; Oncogene Research Products, Boston, Mass.), p27 (K25020; BD Biosciences-Transduction Laboratories, Lexington, Ky.), cyclin-dependent kinase 2 (CDK2; Transduction Laboratories), and actin (Chemicon International, Inc., Temecula, Calif.). Blots were then incubated with goat anti-mouse or anti-rabbit immunoglobulin-horseradish peroxidase conjugate at a dilution of 1:5000 in BLOTTO for 1 h and finally washed and developed by using the Renaissance chemiluminescence system as directed by the manufacturer (Perkin-Elmer Life Sciences, Inc., Boston, Mass.). Western blots were quantitated by densitometric analysis using IPLab Gel software (Scientific Image Processing, Vienna, Va.). Densitometric values of actin were used to standardize for equal protein loading. These values were introduced into the software Graph-Pad Prism version 4.0 (GraphPad Software, Inc., San Diego, Calif.) for statistical analysis.
as §1

[3] = tested on: CDK2 kinase activity in MCF-7/Ac1 cells; experiment: CDK2 kinase assay in LacZ or cyclin E-T1 adenovirus-infected cells; settings: 1 μM letrozole
Experimental: MCF-7/Ac1 cells were cultured in IMEM with 10% charcoal-stripped serum medium (CSSM) without phenol red and with 600 μg/ml of G418 for 4 days before plating. Plates were then infected with LacZ (4000 m.o.i) or increasing concentration of cyclin E-T1 adenoviruses 24 hours before drug treatment. Cells were then left untreated (E2W, estrogen withdrawal) or treated with 25 nM AD (AD) or treated with 25 nM AD and 1 μM letrozole (AD+Let) and collected 3 days later for CDK2 kinase activity. CDK2 kinase assays were performed by immunoprecipitating equal amounts of cell lysate (250 μg) with monoclonal antibodies to CDK2 (D12, sc-6248) coupled to protein G beads, using histone H1 as substrate. The bar graph represents the densitometric values of the phosphorylated histone H1 substrate.

[4] = tested on: CDK2-associated kinase activity in MCF-7/Ac1 cells; experiment: CDK2-associated kinase assay (histone H1); settings: with 25 nM AD, 3 days
Experimental: as §2

MCF-7/Ac1 cells [5] = experiment: Cell growth by cell counting, AD-stimulated cells; settings: Homo sapiens, MCF7, 72 h, with 25 nM AD, 3 days, read-out: inhibition of AD-induced growth
Experimental: Cell growth. The effects of the aromatase inhibitors on MCF7/Ac1 cells growth were examined by counting the cells at the indicated time. The cells were detached from their flask using trypsin and counted using a Coulter counter machine.
To examine the effects of the three different aromatase inhibitors on the proliferation of MCF-7/Ac1 cells, cells were cultured in estrogen deprived, charcoal stripped serum media (CSSM). The response of the cells to 25 nM of androstenedione (AD) alone or AD plus one of the 3 aromatase inhibitors letrozole (FIG. 22A), anastrozole (FIG. 22B), and exemestane (FIG. 22C) was measured after 3 days of treatment. Cells maintained in CSSM were used as controls.
FIGS. 22A-22C show the effect of aromatase inhibitor treatment on proliferative response and cell cycle distribution of MCF-7/Ac1 cells. Cells were cultured in IMEM with 10% charcoal-stripped serum medium (CSSM) without phenol red and with 600 μg/ml of G418 for 4 days before plating. Cells (100,000) were seeded in 100 mm dishes and, 24 hrs later, were exposed for 3 days to the specific treatment. […] CSSM, untreated cells cultured in charcoal-stripped serum medium without phenol red and with 600 μg/ml of G418.

Structure (SMILES): N#Cc1ccc(C(c2ccc(C#N)cc2)n2cncn2)cc1 [letrozole]
- p21 binding to both cyclin E and CDK2 ([1]; letrozole with 25 nM AD): slightly decreased
- increase in p27 binding to both cyclin E and CDK2 over levels in AD treated cells ([1]; letrozole, dose-dependent, with 25 nM AD): up to 2 fold
- cyclin E protein levels (MCF-7/Ac1 cells [2]; 0.5 μM letrozole with 25 nM AD): slightly decreased
- effect on AD-induced increase in CDK2 protein levels (MCF-7/Ac1 cells [2]; increasing letrozole with 25 nM AD): blocked the increase in CDK2 protein levels in a dose dependent manner
- phosphorylation of endogenous CDK2 substrate pRb (MCF-7/Ac1 cells [2]; letrozole with 25 nM AD): decreased phosphorylation
- block of CDK2 kinase activity ([3]; LMW cyclin E (T1) expressing cells, any m.o.i): cannot block
- block of AD-induced increase in CDK2 kinase activity ([3]; LacZ expressing cells): completely blocks
- concentration that blocked the AD-induced increase in CDK2-associated kinase activity [4]: ≤ 0.125 µM
- inhibition at 0.1 µM (MCF-7/Ac1 cells [5]; 0.1 μM): 37.2%
- inhibition at 1 µM (MCF-7/Ac1 cells [5]; 1 μM): 63.5%
